Where “and” joins values, the source holds several entries; their conditions need not be identical. Equal entries are not always repeated.
Legend:
[1] = test system: cellular NAD+ levels in CaLu-3 cells; assay: Quantification of cellular NAD+ (enzymatic cycling kit, normalised to protein); assay type: cell-based
wildtype Mac1 [2] = biological target: T1, wildtype Mac1 (Severe acute respiratory syndrome coronavirus 2, UniProt P0DTD1); assay type: biochemical, SARS-CoV-2
[3] = biological target: NADase from Neurospora crassa (Neurospora crassa, UniProt Q7S936); assay type: biochemical
Sequence of NADase from Neurospora crassa (Q7S936 20-243 limits assumed): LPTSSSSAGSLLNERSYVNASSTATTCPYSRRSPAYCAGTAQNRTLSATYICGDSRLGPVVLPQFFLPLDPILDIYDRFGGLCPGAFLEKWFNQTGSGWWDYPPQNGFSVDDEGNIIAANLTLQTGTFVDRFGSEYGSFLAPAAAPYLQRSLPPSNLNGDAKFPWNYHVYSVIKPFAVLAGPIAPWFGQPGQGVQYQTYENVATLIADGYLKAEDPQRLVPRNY

Mac1 [4] = details: cited from earlier work
in vitro = details: human, pH 7.4
pig liver esterase (PLE) = details: pH 7.3
physchem = details: pH 7.3
[5] = pH 7.3
Mac1 of SARS-CoV-2 [6] = biological target: T2, Mac1 of SARS-CoV-2 (Severe acute respiratory syndrome coronavirus 2, UniProt P0DTD1); assay: Fluorimetric microplate assay for Mac1 activity (α-NAD+ hydrolysis, post-reaction derivatisation); assay type: biochemical
Mac1 of SARS-CoV-2 [7] = biological target: T2, Mac1 of SARS-CoV-2; assay: biochemical; details: pIC50 (±SD) for Mac1 inhibition
human MacroD1 = human MacroD1 (Homo sapiens, UniProt Q9BQ69); assay type: biochemical
Sequence of human MacroD1 (Q9BQ69 whole entry): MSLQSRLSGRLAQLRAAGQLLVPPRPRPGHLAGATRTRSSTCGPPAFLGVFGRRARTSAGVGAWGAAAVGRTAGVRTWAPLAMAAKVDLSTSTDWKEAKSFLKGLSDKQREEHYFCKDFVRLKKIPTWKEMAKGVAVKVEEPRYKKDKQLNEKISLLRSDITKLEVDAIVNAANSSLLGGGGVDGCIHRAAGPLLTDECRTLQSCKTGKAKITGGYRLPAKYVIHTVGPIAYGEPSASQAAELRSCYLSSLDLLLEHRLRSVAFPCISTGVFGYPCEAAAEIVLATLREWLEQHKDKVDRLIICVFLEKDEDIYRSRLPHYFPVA

human MacroD2 = human MacroD2 (Homo sapiens, UniProt A1Z1Q3); assay type: biochemical
Sequence of human MacroD2 (A1Z1Q3 whole entry): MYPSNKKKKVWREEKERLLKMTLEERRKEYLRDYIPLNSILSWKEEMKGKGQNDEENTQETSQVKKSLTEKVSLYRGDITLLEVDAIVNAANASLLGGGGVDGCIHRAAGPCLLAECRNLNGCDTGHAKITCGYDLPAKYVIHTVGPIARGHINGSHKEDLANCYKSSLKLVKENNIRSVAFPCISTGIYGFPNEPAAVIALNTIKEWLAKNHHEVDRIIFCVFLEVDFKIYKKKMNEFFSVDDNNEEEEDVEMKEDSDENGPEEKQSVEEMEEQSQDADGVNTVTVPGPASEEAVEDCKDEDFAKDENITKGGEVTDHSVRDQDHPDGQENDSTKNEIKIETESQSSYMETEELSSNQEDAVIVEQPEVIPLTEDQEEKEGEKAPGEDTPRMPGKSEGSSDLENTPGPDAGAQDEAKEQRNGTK

wildtype Mac1 [8] = biological target: T1, wildtype Mac1; assay type: binding
Mac1 [9] = details: cited from earlier work; remark: listed apart in the source

With `O=C(/C=C/c1cccnc1)NCCCCC1CCN(C(=O)c2ccccc2)CC1` [FK866] as the molecule, how does the “reduction of cellular NAD levels” value [1] read?
Its value is ~ 90%.

With `NC(=O)c1ccc[n+]([C@@H]2O[C@H](COP(=O)([O-])OP(=O)(O)OC[C@H]3O[C@@H](n4cnc5c(N)ncnc54)[C@H](O)[C@@H]3O)[C@@H](O)[C@H]2O)c1` [compound 2, β-NAD^+] as the molecule, how does the “hydrolysis by Mac1 (in words)” value (wildtype Mac1 [2]) read?
Its value is “intact”.

And the “hydrolysis by NADase (in words)” value [3]?
The value was “hydrolyzed”.

Which “affinity for Mac1 compared with ADPR 1 (in words)” value (Mac1 [4]) does the source give for `N#C[C@@]1(c2ccc3c(N)ncnn23)O[C@H](CO)[C@@H](O)[C@H]1O` [compound 3, GS-441524] here?
Its value is “affinity similar to ADPR 1”.

Which “time at which cellular uptake reached an equilibrium” value (CaLu-3 cells; human, pH 7.4) does the source give for `COP(=O)(O)OP(=O)(O)OC[C@H]1O[C@@](C#N)(c2ccc3c(N)ncnn23)[C@H](O)[C@@H]1O` [compound 4, β-methyl-GS-441524-DP] here?
The value was 15 min.

With `CCCCCCCCCCCC(=O)Oc1ccc(COP(=O)(OC)OP(=O)(O)OC[C@H]2O[C@@](C#N)(c3ccc4c(N)ncnn34)[C@H](O)[C@@H]2O)cc1` (stereo partly drawn) [compound 5, C11-AB-β-methyl-GS-441524-DP] as the molecule, how does the CC50 (in vitro) read?
Its CC50 is > 50 µM.

What about the “hydrolysis with pig liver esterase (in words)” value (pig liver esterase (PLE)) of the same molecule?
Its value is “successful”.

And the “decrease of β-NAD+ 2 levels” value (CaLu-3 cells)?
The value was 62%.

What about the “GS-441524-MP 40 formed, share of the total of detectable 40 and deprotected compound” value (CaLu-3 cells; human, pH 7.4) of the same molecule?
The value was 24%.

What about the intracellular concentration (CaLu-3 cells; human, pH 7.4) of the same molecule?
The intracellular concentration was 0.3 to 0.4 µM.

And the half-life (physchem)?
The half-life was 61 h.

What about the “time at which incipient decomposition to GS-441524-MP 40 was discovered” value [5] of the same molecule?
Its value is 30 s.

With `O=c1[nH]cnc2c1ncn2C1OC(COP(=O)(O)OP(=O)(O)OCC2OC(O)C(O)C2O)C(O)C1O` (stereo not drawn) [compound 10, inosine-5′-O-diphosphoribose] as the molecule, how does the “Inhibition of Mac1 (in words)” value (Mac1 of SARS-CoV-2 [6]) read?
The value was “did not inhibit Mac1”.

Which IC50 (Mac1 of SARS-CoV-2 [6]) does the source give for `Nc1nc(F)nc2c1ncn2C1OC(COP(=O)(O)OP(=O)(O)OCC2OC(O)C(O)C2O)C(O)C1O` (stereo not drawn) [compound 11, 2-F-ADPR] here?
Its IC50 is 191 µM.

With `Nc1ncnc2c1nc(-c1ccsc1)n2C1OC(COP(=O)(O)OP(=O)(O)OCC2OC(O)C(O)C2O)C(O)C1O` (stereo not drawn) [compound 12, 8-thiophen-3-yl-ADPR] as the molecule, how does the IC50 (Mac1 of SARS-CoV-2 [7]) read?
Its IC50 is 251 µM.

For `Nc1ncnc2c1nc(Br)n2C1OC(COP(=O)(O)OP(=O)(O)OCC2OC(O)C(O)C2O)C(O)C1O` (stereo not drawn) [compound 13, 8-Br-ADPR], which “Inhibition of human MacroD1 (in words)” value (human MacroD1) is on record?
Its value is “low micromolar range”.

What about the “Inhibition of human MacroD2 (in words)” value (human MacroD2) of the same molecule?
Its value is “low micromolar range”.

Which IC50 (Mac1 of SARS-CoV-2 [6]) does the source give for `Nc1ncnc2c1cc(Br)n2C1OC(COP(=O)(O)OP(=O)(O)OCC2OC(O)C(O)C2O)C(O)C1O` (stereo not drawn) [compound 14, 8-Br-7-deaza-ADPR] here?
Its IC50 is 38 µM.

Which results are given for `Nc1ncnc2c1ncn2[C@@H]1O[C@H](COP(=O)(O)OP(=O)(O)OC[C@H]2O[C@@H](O)C(O)[C@H]2O)C(O)[C@@H]1OP(=O)(O)O` (stereo partly drawn) [compound 15, ADPR-2′-phosphate]?
affinity for Mac1 compared with ADPR 1 (in words) (Mac1 [4]): slightly higher affinity than ADPR 1; TΔS (wildtype Mac1 [8]): -5.4 ± 1.2 kcal/mol; ΔH (wildtype Mac1 [8]): -11.5 ± 0.2 kcal/mol

For `Nc1ncnc2c1ncn2[C@H]1C[C@H](O)[C@@H](COP(=O)(O)OP(=O)(O)OC[C@H]2OC(O)[C@H](O)[C@@H]2O)O1` (stereo partly drawn) [compound 16, 2′-deoxy-ADPR], which TΔS (wildtype Mac1 [8]) is on record?
The TΔS was -5.9 ± 0.2 kcal/mol.

And the ΔH (wildtype Mac1 [8])?
The ΔH was -12.5 ± 0.2 kcal/mol.

With `Nc1ncnc2c1ncn2[C@@H]1O[C@H](COP(=O)(O)OP(=O)(O)O)[C@@H](O)[C@H]1O` [compound 18, ADP] as the molecule, how does the “thermal stabilisation of Mac1 (in words)” value (Mac1 [9]) read?
Its value is “not thermally stabilised”.

What about the “pIC50 (±SD) for Mac1 inhibition” value (Mac1 of SARS-CoV-2 [6]) of the same molecule?
The value was 2.44 and 2.3 ± 0.1.

Which IC50 (Mac1 of SARS-CoV-2 [6]) does the source give for `Nc1ncnc2c1ccn2C1OC(COP(=O)(O)OP(=O)(O)OCC2OC(O)C(O)C2O)C(O)C1O` (stereo not drawn) [compound 22, 7-Deazaadenosine DP ribose] here?
The IC50 was 14.5 µM.

For `Nc1ncnc2c1ncn2[C@@H]1O[C@H](COP(=O)(O)OP(=O)(O)O[C@H]2O[C@H](CO)[C@@H](O)[C@H](O)[C@H]2O)[C@@H](O)[C@H]1O` [compound 23, ADP-glucose], which “Inhibition of Mac1 (in words)” value (Mac1 of SARS-CoV-2 [6]) is on record?
Its value is “no detectable inhibition”.

Which “pIC50 (±SD) for Mac1 inhibition” value (Mac1 of SARS-CoV-2 [6]) does the source give for `Nc1ncnc2c1ncn2[C@@H]1O[C@H](COP(=O)(O)OP(=O)(O)OC2CCCC2)[C@@H](O)[C@H]1O` [compound 27, β-cyclopentyl-ADP] here?
Its value is 2.79.

Which “Inhibition of Mac1 (in words)” value (Mac1 of SARS-CoV-2 [6]) does the source give for `Nc1ncnc2c1ncn2[C@@H]1O[C@H](COP(=O)(O)CP(=O)(O)O)[C@@H](O)[C@H]1O` [compound 34, α-β methylene-ADP] here?
Its value is “none of these compounds inhibited Mac1”.

With `Nc1ncnc2c1ncn2[C@@H]1O[C@H](COP(=O)(O)OP(=O)(O)S)[C@@H](O)[C@H]1O` (stereo partly drawn) [compound 35, adenosine-5′-O-(2-thiodiphosphate)] as the molecule, how does the IC50 (Mac1 of SARS-CoV-2 [6]) read?
Its IC50 is 3890 µM.

Which “Inhibition of Mac1 (in words)” value (Mac1 of SARS-CoV-2 [6]) does the source give for `Nc1ncnc2c1ncn2[C@@H]1O[C@H](CO)[C@@H](O)[C@H]1O` [compound 38, adenosine] here?
Its value is “showed no inhibition”.

For `Nc1ncnc2c1ncn2[C@@H]1O[C@H](COP(=O)(O)O)[C@@H](O)[C@H]1O` [compound 39, AMP], which “Inhibition of Mac1 (in words)” value (Mac1 of SARS-CoV-2 [6]) is on record?
The value was “showed no inhibition”.

For `N#C[C@@]1(c2ccc3c(N)ncnn23)O[C@H](COP(=O)(O)O)[C@@H](O)[C@H]1O` [compound 40, GS-441524-monophosphate], which IC50 (Mac1 of SARS-CoV-2 [6]) is on record?
Its IC50 is 43.7 µM.

From article PMC13408504, “Design, structure-based optimization and antiviral evaluation of potent inhibitors for the macrodomain Mac1 of SARS-CoV-2” (Nature Communications, 2026)
